In brackets after ≈: the same amount, converted by molar mass. Where two headings read alike, the source gives them in different places.
Tests used:
[1] = tested on: Staphylococcus aureus ATCC 29213; experiment: microbe, parasite or virus in culture; format: cell-based; conditions: ATCC29213
[2] = tested on: Staphylococcus aureus MRSA MC-1; experiment: microbe, parasite or virus in culture; format: cell-based; conditions: Staphylococcus aureus, MRSA
[3] = tested on: Enterococcus faecium VRE 1; experiment: microbe, parasite or virus in culture; format: cell-based; conditions: Enterococcus faecium, VRE
Bacillus cereus = experiment: microbe, parasite or virus in culture; format: cell-based; conditions: Bacillus cereus
M. smegmatis = experiment: MIC assay; format: cell-based; conditions: for MIC: Mycolicibacterium smegmatis, read-out: MIC M. smegmatis
[4] = tested on: Corynebacterium pseudodiphthericum; experiment: microbe, parasite or virus in culture; format: cell-based; conditions: Corynebacterium pseudodiphtheriticum; Table 4; Corynebacterium pseudodiphthericum; read-out: MIC
Corynebacterium xerosis = experiment: microbe, parasite or virus in culture; format: cell-based; conditions: Table 4, read-out: MIC
[5] = tested on: Enterococcus faecium VRE 14; experiment: microbe, parasite or virus in culture; format: cell-based
[6] = tested on: Enterococcus faecalis ATCC 29212; experiment: microbe, parasite or virus in culture; format: cell-based; conditions: ATCC29212; Table 4; Enterococcus faecalis ATCC 29212; read-out: MIC
Streptococcus mitis = experiment: microbe, parasite or virus in culture; format: cell-based; conditions: Table 4, read-out: MIC
Streptococcus agalactiae = experiment: microbe, parasite or virus in culture; format: cell-based; conditions: Table 4, read-out: MIC
Listeria monocytogenes = experiment: microbe, parasite or virus in culture; format: cell-based; conditions: Table 4, read-out: MIC
Mycobacterium bovis BCG = experiment: microbe, parasite or virus in culture; format: cell-based; conditions: Mycobacterium tuberculosis variant bovis BCG, Table 4, Mycobacterium bovis BCG
[7] = tested on: Staphylococcus aureus MW 2; experiment: MIC assay; format: cell-based; conditions: MW2, Table 4
Clostridium tertium = experiment: MIC assay; format: cell-based; conditions: Table 4
Clostridium novyi A = experiment: MIC assay; format: cell-based; conditions: Table 4
Clostridium difficile = experiment: MIC assay; format: cell-based; conditions: Clostridioides difficile, Table 4
Propionibacterium acnes = experiment: MIC assay; format: cell-based; conditions: Cutibacterium acnes, Table 4
[8] = tested on: Peptostreptococcus anaerobius; experiment: MIC assay; format: cell-based; conditions: Table 4
[9] = tested on: Erysipelothrix rhusiopathiae; experiment: MIC assay; format: cell-based; conditions: Table 4
Streptococcus pneumoniae = experiment: MIC assay; format: cell-based; conditions: Table 4; Streptococcus pneumoniae (source UWL)
Streptococcus bovis = experiment: MIC assay; format: cell-based; conditions: Streptococcus equinus, Table 4
Mycobacterium avium = experiment: MIC assay; format: cell-based; conditions: Mycobacterium avium
Mycobacterium chelonae = experiment: MIC assay; format: cell-based
Mycobacterium fortuitum = experiment: MIC assay; format: cell-based; conditions: Mycolicibacterium fortuitum
[10] = tested on: Mycobacterium intracellulare; experiment: MIC assay; format: cell-based; conditions: Mycobacterium intracellulare
M. kansasii = experiment: MIC assay; format: cell-based; conditions: Mycobacterium kansasii
[11] = tested on: methicillin-sensitive S. aureus (MSSA) strains; experiment: MIC screening against MSSA strains; format: cell-based; conditions: Table 5, 39 tested
[12] = tested on: community-associated methicillin-resistant S. aureus (CA-MRSA) strains; experiment: MIC screening against CA-MRSA strains; format: cell-based
[13] = tested on: vancomycin-resistant enterococci; experiment: microbe, parasite or virus in culture; format: cell-based; conditions: Enterococcus, VRE, read-out: MICs
[14] = tested on: Gram-positive bacteria tested; experiment: organism not typed; format: cell-based
[15] = tested on: Gram-positive bacterial species tested; experiment: Minimal Bacterial Concentration Testing (MBC); format: cell-based
Experimental: Following the MIC, the last three wells showing no bacterial growth were diluted and plated onto BHI agar to do MBC testing.

[16] = Safety Testing with Swiss Webster Mice; format: in vivo
C. elegans = experiment: motility assay; format: in vivo; design: key to Movement score, 1/1600 / Movement score, 1/800 / Movement score, 1/400 / Movement score, 1/200 / Movement score, 1/100: normal (−); slow (+); very slow (++); not motile/paralyzed (+++); conditions: for Movement score, 1/100: dilution 1/100 of stock (10.24 μg/μL; SK-03-92 1.024 μg/μL); for Movement score, 1/100 / Movement score, 1/200 / Movement score, 1/400 / Movement score, 1/800 / Movement score, 1/1600: Ive 1 ng/μL in all wells; for Movement score, 1/200: dilution 1/200 of stock (10.24 μg/μL; SK-03-92 1.024 μg/μL); for Movement score, 1/400: dilution 1/400 of stock (10.24 μg/μL; SK-03-92 1.024 μg/μL); for Movement score, 1/800: dilution 1/800 of stock (10.24 μg/μL; SK-03-92 1.024 μg/μL); for Movement score, 1/1600: dilution 1/1600 of stock (10.24 μg/μL; SK-03-92 1.024 μg/μL), overnight 20° C.
[17] = tested on: S. aureus strains tested, including MRSA; experiment: MIC assay
[18] = tested on: Enterococcus sp., including VRE strains; experiment: MIC assay; conditions: read-out: MICs
S. aureus MW2 = experiment: murine thigh abscess model of infection; conditions: for CFU/thigh reduced: single intraperitoneal injection
C. elegans L1 larvae = experiment: developmental assay; format: in vivo; design: key to Developmental score, 1/1600 / Developmental score, 1/800 / Developmental score, 1/400 / Developmental score, 1/200 / Developmental score, 1/100: dead (+++); distressed (++); slightly delayed (+); the same as M9-only untreated wells (−); conditions: after four days, Ive 1 ng/μL in each well
[19] = Staphylococcus aureus, Table 6, read-out: MIC S. aureus ATCC 29213
[20] = Table 6, read-out: MIC M. avium
[21] = Table 6, read-out: MIC M. chelonae
[22] = Table 6, read-out: MIC M. fortuitum
[23] = Table 6, read-out: MIC M. intracellulare
[24] = Table 6, read-out: MIC M. kansasii

COc1cc(O)cc(/C=C/c2cc3ccccc3s2)c1 [SK-03-92, (E)-3-(2-(benzo[b]thiophen-2-yl)vinyl)-5-methoxyphenol]
MIC ([1]; Table 4, Staphylococcus aureus ATCC 29213, read-out: MIC): 2 µg/mL (≈ 7.08 µM) | MIC [1, 19]: 4 µg/mL (≈ 14.2 µM) | MIC ([2]; read-out: MIC S. aureus MC-1): 2 µg/mL (≈ 7.08 µM) | MIC [3]: 2 µg/mL (≈ 7.08 µM) | MIC (Bacillus cereus; Table 4, read-out: MIC): 1 µg/mL (≈ 3.54 µM) | MIC (M. smegmatis; Table 6): 32 µg/mL (≈ 113 µM) | MIC [4]: 2 µg/mL (≈ 7.08 µM) | MIC (Corynebacterium xerosis): 2 µg/mL (≈ 7.08 µM) | MIC [5]: 2 µg/mL (≈ 7.08 µM) | MIC [6]: 4 µg/mL (≈ 14.2 µM) | MIC (Streptococcus mitis): 2 µg/mL (≈ 7.08 µM) | MIC (Streptococcus agalactiae): 2 µg/mL (≈ 7.08 µM) | MIC (Listeria monocytogenes): 2 µg/mL (≈ 7.08 µM) | MIC (Mycobacterium bovis BCG): 25 µg/mL (≈ 88.5 µM) | MIC [7]: 2 µg/mL (≈ 7.08 µM) | MIC (Clostridium tertium): 1 µg/mL (≈ 3.54 µM) | MIC (Clostridium novyi A): 2 µg/mL (≈ 7.08 µM) | MIC (Clostridium difficile): 2 µg/mL (≈ 7.08 µM) | MIC (Propionibacterium acnes): 2 µg/mL (≈ 7.08 µM) | MIC [8]: 1 µg/mL (≈ 3.54 µM) | MIC [9]: 8 µg/mL (≈ 28.3 µM) | MIC (Streptococcus pneumoniae): 16 µg/mL (≈ 56.7 µM) | MIC (Streptococcus bovis): 2 µg/mL (≈ 7.08 µM) | MIC (Mycobacterium avium; [20]): 16 µg/mL (≈ 56.7 µM) | MIC (Mycobacterium avium; Table 4, read-out: MIC): 16 µg/mL (≈ 56.7 µM) | MIC (Mycobacterium chelonae; Table 4, Mycobacterium chelonae, read-out: MIC): 32 µg/mL (≈ 113 µM) | MIC (Mycobacterium chelonae; [21]): 32 µg/mL (≈ 113 µM) | MIC (Mycobacterium fortuitum; Table 4, Mycobacterium fortuitum, read-out: MIC): 16 µg/mL (≈ 56.7 µM) | MIC (Mycobacterium fortuitum; [22]): 16 µg/mL (≈ 56.7 µM) | MIC [10, 23]: 32 µg/mL (≈ 113 µM) | MIC ([10]; Table 4, read-out: MIC): 32 µg/mL (≈ 113 µM) | MIC (M. kansasii; Table 4, Mycobacterium kamasii, read-out: MIC): 16 µg/mL (≈ 56.7 µM) | MIC (M. kansasii; [24]): 16 µg/mL (≈ 56.7 µM) | MIC range [11]: 1 to 2 µg/mL | MIC ([12]; Staphylococcus aureus, many MRSA strains): 2 to 4 µg/mL (≈ 7.08 to 14.2 µM) | MIC range ([12]; Table 5, CA-MRSA, 43 tested): 2 to 4 µg/mL | MIC [13]: 2 µg/mL (≈ 7.08 µM) | killing of Gram-positive bacterial species ([14]; all of the Gram-positive bacterial species tested): killed | MIC ([14]; variety of other Gram-positive species): 1 to 8 µg/mL (≈ 3.54 to 28.3 µM) | MBC analysis [15]: bactericidal | harm to mice ([16]; intraperitoneal injections up to 3 g/kg, preliminary): did not appear to harm the mice | harm to mice ([16]; ~2 g/kg dose intraperitoneally and after a repeated dose): did not harm mice | Movement score, 1/100 (C. elegans): + | Movement score, 1/200 (C. elegans): − | Movement score, 1/400 (C. elegans): − | Movement score, 1/800 (C. elegans): − | Movement score, 1/1600 (C. elegans): − | MIC ([17]; Staphylococcus aureus, MRSA, read-out: MICs): 2 to 4 µg/mL (≈ 7.08 to 14.2 µM) | relative activity against S. aureus ([17]; comparison among analogs of Table 6): best activity | MIC [18]: 2 to 4 µg/mL (≈ 7.08 to 14.2 µM) | CFU/thigh reduced (S. aureus MW2; high dose, preliminary): 3 logs | CFU/thigh reduced (S. aureus MW2; low dose, preliminary): 2.5 logs | in vivo efficacy (S. aureus MW2; thigh abscess model): in vivo efficacy | drop in the bacterial counts (S. aureus MW2; two days after drug injection, preliminary): 2-3 log

COc1cc(O)cc(/C=C/Oc2ccc3ccccc3c2)c1 [SK-04-23]
MIC [1, 19]: 8 µg/mL (≈ 27.4 µM) | MIC ([1]; Staphylococcus aureus, per-compound listing, Example 6, read-out: MIC S. aureus): 16 µg/mL (≈ 54.7 µM) | MIC ([2]; read-out: MIC MRSA): 8 µg/mL (≈ 27.4 µM) | MIC ([2]; read-out: MIC S. aureus MC-1): 8 µg/mL (≈ 27.4 µM) | MIC (Bacillus cereus; per-compound listing, Example 6, read-out: MIC B. cereus): 8 µg/mL (≈ 27.4 µM) | MIC (M. smegmatis; per-compound listing, Example 6): 128 µg/mL (≈ 438 µM) | MIC M. smegmatis (M. smegmatis; Table 6): 128 µg/mL (≈ 438 µM) | MIC (Mycobacterium avium; [20]): 64 µg/mL (≈ 219 µM) | MIC (Mycobacterium chelonae; [21]): 128 µg/mL (≈ 438 µM) | MIC (Mycobacterium fortuitum; [22]): 128 µg/mL (≈ 438 µM) | MIC [10, 23]: 64 µg/mL (≈ 219 µM) | MIC (M. kansasii; [24]): 64 µg/mL (≈ 219 µM) | Movement score, 1/100 (C. elegans): ++ | Movement score, 1/200 (C. elegans): ++ | Movement score, 1/400 (C. elegans): ++ | Movement score, 1/800 (C. elegans): ++ | Movement score, 1/1600 (C. elegans): + | effect on worms at the lowest concentrations tested (C. elegans; lowest concentrations tested, at least triplicate): reduced motility, paralysis, or death | Developmental score, 1/100 (C. elegans L1 larvae; dilution 1/100): +++ | Developmental score, 1/200 (C. elegans L1 larvae; dilution 1/200): +++ | Developmental score, 1/400 (C. elegans L1 larvae; dilution 1/400): + | Developmental score, 1/800 (C. elegans L1 larvae; dilution 1/800): − | Developmental score, 1/1600 (C. elegans L1 larvae; dilution 1/1600): −

Reference: US8530512B2, “Broad spectrum gram-positive antimicrobials and anthelmintics with efficacy against drug-resistant strains and Mycobacterium species” (priority 2004, dated 2013)
